Legend:
[1] = tested on: HeLa cells; test: AO/EB staining; type: cell-based, human; conditions: 10 μM, 12 and 24 h
Protocol: The cytotoxicity of compound 9n at a concentration of 10 μM against HeLa cells from 12 to 24 h was detected by AO/EB staining, and Hela cells not treated with the 9n were used as control for 48 h. […] Also due to the AO uptake, control cells appeared green while 9n treated cells appeared green to intense green as apoptotic cells had much more permeable membranes.
Cells were seeded at a concentration of 5 × 10^4 cell/ mL in a volume of 2 mL on a sterile cover slip in six-well tissue culture plates. Following incubation, the medium was removed and replaced with fresh medium plus 10% fetal bovine serum and supplemented with compound 9n (15 μM). After the treatment period, the cover slip with monolayer cells was inverted on a glass slide with 20 μL of AO/EB stain (100 mg/mL). Fluorescence was read on a slide with 20 μL of AO/EB stain (100 mg/mL) using a Nikon ECLIPSETE2000-S fluorescence microscope ([…], Tokyo, Japan).

[2] = tested on: HeLa cells; test: Cell cycle distribution by PI flow cytometry; type: cell-based, human; conditions: 10, 15 μM, 48 h
Protocol: Many anticancer drugs interact with cells leading to cell growth arrest. To determine the possible role of cell cycle arrest in DHAA derivative induced growth inhibition, HeLa cells were treated with different concentrations of compound 9n. Cell cycle distribution was investigated by flow cytometric analysis after staining of the DNA with propidium iodide (PI).
General procedure cell cycle: HeLa cells were maintained in Dulbecco’s modified Eagle’s medium with 10% fetal calf serum in 5% CO2 at 37 °C. Cells were harvested by trypsinization and rinsed with PBS. After centrifugation, the pellet (10^5–10^6 cells) was suspended in 1 mL of PBS and kept on ice for 5 min. The cell suspension was then fixed by the drop-wise addition of 9 mL precooled (4 °C) 75% ethanol with violent shaking. Fixed samples were kept at 4 °C until use. For staining, cells were centrifuged, resuspended in PBS, digested with 500 μL of RNase A (250 mg/mL), and treated with 25 μL of propidium iodide (PI) (0.15 mM), then incubated for 30 min at 4 °C. PI-positive cells were counted with a FACScan Fluorescence-activated cell sorter (FACS). The population of cells in each cell-cycle phase was determined using Cell Modi FIT software (Becton Dickinson).

[3] = tested on: HeLa cells; test: Hoechst 33258 staining; type: cell-based, human; conditions: 10 μM, 12 and 24 h
Protocol: Hoechst 33258 which stains the cell nucleus, is a membrane permeable dye with blue fluorescence. Live cells with uniformly light blue nuclei were obviously detected under the fluorescence microscope after treatment with Hoechst 33258 whereas apoptotic cells had bright blue nuclei due to karyopyknosis and chromatin condensation. However, the nuclei of dead cells could not be stained. HeLa cells treated with compound 9n at 10 μM from 12 to 24 h were stained with Hoechst 33258. HeLa cells not treated with compound 9n were used as control for 24 h.
General procedure for Hoechst 33258 staining: cells grown on a sterile cover slip in six-well tissue culture plates were treated with compounds for a certain range of time. The culture medium containing compounds was removed, and the cells were fixed in 4% paraformaldehyde for 10 min. After being washed twice with PBS, the cells were stained with 0.5 mL of Hoechst 33258 (Beyotime, Jiangsu, China) for 5 min and then again washed twice with PBS. The stained nuclei were observed under a Nikon ECLIPSETE2000-S fluorescence microscope using 350 nm excitation and 460 nm emission.

[4] = tested on: HeLa cells; test: TUNEL assay; type: cell-based, human; conditions: 10 μM, 12 and 24 h
Protocol: To further define the mechanism of cell death caused by compound 9n, HeLa cells were treated with compound 9n at 10 μM from 12 to 24 h and the DNA fragmentation was measured by the TUNEL assay. TUNEL (terminal-deoxynucleotidyl transferase meditated nick end labeling) is a common method for identifying apoptotic cells in situ by detecting DNA fragmentation. When the genomic DNA is broken, the exposed 3ʹ-OH at the end of deoxynucleotide transfer as the catalytic plus green fluorescent probes fluorescein (FITC) labeled dUTP, which can be detected by fluorescence microscopy or flow cytometry, as indicated by a green color (in the web version). The results are illustrated in Figure 4. […] The results were in good agreement with the previous experiments.
The TUNEL method was performed to label the 3′-end of fragmented DNA of the apoptotic HeLa cells. The cells treated as indicated were fixed with 4% paraformaldehyde phosphate buffer saline, rinsed with PBS, then permeabilized by 0.1% Triton X-100 for FITC end-labeling the fragmented DNA of the apoptotic HeLa cells using TUNEL cell (Beyotime, Jiangsu, China) apoptosis detection kit. The FITC-labeled TUNEL-positive cells were imaged under a fluorescent microscopy by using 488 nm excitation and 530 nm emission.

[5] = tested on: SK-OV-3; test: MTT cytotoxicity assay, SK-OV-3; type: cell-based; conditions: Homo sapiens, 48 h, mean ± SD, three independent experiments
[6] = tested on: caspase-3; test: Caspase-3 activation assay; type: cell-based, human; conditions: HeLa, versus control, 3 to 24 h
Source text: It is well known that an increase of intracellular ROS can lead to apoptosis. […] Caspases are a family of cysteinyl aspartate specific proteases involved in apoptosis and are dichotomized to groups of initiators (caspases 8, 9 and 10) and executioners (caspases 3, 6 and 7). Caspase-3 is able to directly degrade multiple substrates including structural and regulatory proteins. Some small molecules have been developed to be selective activators of Caspase-3 [30]. Thus, we investigated whether caspase-3 was activated when HeLa cells were exposed to compound 9n.

[7] = tested on: HeLa; test: MTT cytotoxicity assay, HeLa; type: cell-based; conditions: Homo sapiens, 48 h, mean ± SD, three independent experiments

CC(C)c1ccc2c(c1)CCC1[C@](C)(C(=O)NC(=S)N[C@H](Cc3ccccc3)C(=O)Nc3ccccn3)CCC[C@]21C (stereo partly drawn) [Compound 9n, (1R,4aS)-7-Isopropyl-1,4a-dimethyl-N-(((R)-1-oxo-3-phenyl-1-(pyridin-2-ylamino)propan-2-yl)carbamothioyl)-1,2,3,4,4a,9,10,10a-octahydrophenanthrene-1-carboxamide]
apoptosis by AO/EB staining [1]: obvious apoptotic characters | cell cycle arrest [2]: mainly arrested HeLa cells in the S stage | apoptosis by Hoechst 33258 staining [3]: typical apoptotic morphology | DNA fragmentation by TUNEL [4]: significantly induced apoptosis | IC50 [5]: 19.6 ± 1.87 µM | caspase-3 activity [6]: significant increase in the activity of caspase-3 | IC50 [7]: 6.58 ± 1.11 µM

Source: PMC4519859, “Synthesis and Biological Evaluation of Novel Dehydroabietic Acid Derivatives Conjugated with Acyl-Thiourea Peptide Moiety as Antitumor Agents” (International Journal of Molecular Sciences, 2015)
